Assay results as given in PubChem BioAssay AID330 (DTP/NCI, 2004).
Where “and” joins values, the source holds several entries; their conditions need not be identical. Equal values may be shown once. Inconclusive results and toxic doses are left out. How the source made its calls: active means survival T/C of 150% or more; inactive means T/C below 125% in these data.

Test system: P388 leukemia ip, CD2F1 mice, survival T/C
Test: NCI In Vivo Anticancer Drug Screen. Data for tumor model P388 Leukemia (intraperitoneal) in CD2F1 (CDF1) mice
Conditions: endpoint: median survival time, higher = longer survival
Method in brief: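 Mice carrying the transplanted tumor received test compound or vehicle. Survival was recorded in each group, and the value is the treated-group measurement divided by that of the vehicle-treated control group.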

[1] = dose: 100.0 mg/kg/injection, schedule: Q01DX009 (ip), vehicle: saline with Tween-80
[2] = dose: 200.0 mg/kg/injection, schedule: Q01DX009 (ip), vehicle: saline with Tween-80
[3] = dose: 400.0 mg/kg/injection, schedule: Q01DX009 (ip), vehicle: saline with Tween-80
[4] = dose: 50.0 mg/kg/injection, schedule: Q01DX005 (ip), vehicle: saline with Tween-80
[5] = dose: 100.0 mg/kg/injection, schedule: Q01DX005 (ip), vehicle: saline with Tween-80
[6] = dose: 50.0 mg/kg/injection, schedule: Q01DX009 (ip), vehicle: saline with Tween-80
[7] = dose: 12.5 mg/kg/injection, schedule: Q01DX009 (ip), vehicle: saline with Tween-80
[8] = dose: 25.0 mg/kg/injection, schedule: Q01DX009 (ip), vehicle: saline with Tween-80
[9] = dose: 50.0 mg/kg/injection, schedule: Q01DX009 (ip), vehicle: Klucel (hydroxypropylcellulose) (HPC)
[10] = dose: 100.0 mg/kg/injection, schedule: Q01DX009 (ip), vehicle: Klucel (hydroxypropylcellulose) (HPC)
[11] = dose: 100.0 mg/kg/injection, schedule: Q04DX002 (ip), vehicle: saline
[12] = dose: 200.0 mg/kg/injection, schedule: Q04DX002 (ip), vehicle: saline
[13] = dose: 200.0 mg/kg/injection, schedule: Q01DX009 (ip), vehicle: Klucel (hydroxypropylcellulose) (HPC)
[14] = dose: 50.0 mg/kg/injection, schedule: Q01DX005 (ip), vehicle: Klucel (hydroxypropylcellulose) (HPC)
[15] = dose: 100.0 mg/kg/injection, schedule: Q01DX005 (ip), vehicle: Klucel (hydroxypropylcellulose) (HPC)
[16] = dose: 200.0 mg/kg/injection, schedule: Q01DX005 (ip), vehicle: Klucel (hydroxypropylcellulose) (HPC)
[17] = dose: 50.0 mg/kg/injection, schedule: Q01DX009 (ip), vehicle: saline
[18] = dose: 100.0 mg/kg/injection, schedule: Q01DX009 (ip), vehicle: saline
[19] = dose: 200.0 mg/kg/injection, schedule: Q01DX009 (ip), vehicle: saline

Measured: T/C

CC1(C)C(C(=O)/C=C/c2ccccc2)C1[N+](=O)[O-] (configuration not stated)
inactive: dose: 50.0 mg/kg/injection, schedule: Q04DX003 (ip), vehicle: Klucel (hydroxypropylcellulose) (HPC) 96 % of control | dose: 100.0 mg/kg/injection, schedule: Q04DX003 (ip), vehicle: Klucel (hydroxypropylcellulose) (HPC) 96 % of control | dose: 200.0 mg/kg/injection, schedule: Q04DX003 (ip), vehicle: Klucel (hydroxypropylcellulose) (HPC) 100 % of control | dose: 400.0 mg/kg/injection, schedule: Q04DX003 (ip), vehicle: Klucel (hydroxypropylcellulose) (HPC) 101 % of control

C[C@]12CCC(=O)C[C@H]1CC[C@@H]1[C@@H]2CC[C@@]2(C)[C@H]1CC[C@]2(C)O
inactive: [1] 90 % of control | [2] 95 % of control | [3] 100 % of control

O=[N+]([O-])c1ccc(N2CCN(c3ccccc3)CC2)c2nonc12
inactive: dose: 50.0 mg/kg/injection, schedule: Q01DX009 (ip), vehicle: suspension in saline 100 % of control | dose: 100.0 mg/kg/injection, schedule: Q01DX009 (ip), vehicle: suspension in saline 99 % of control | dose: 200.0 mg/kg/injection, schedule: Q01DX009 (ip), vehicle: suspension in saline 99 % of control and 100 % of control

NC(N)=N/N=C/c1nccc2ccccc12
inactive: dose: 25.0 mg/kg/injection, schedule: Q01DX005 (ip), vehicle: saline with Tween-80 99 % of control and 103 % of control | [4] 98 % of control and 99 % of control and 102 % of control | [5] 105 % of control and 120 % of control

C=C(C)C(C(=O)OCC)C(=O)OCC
inactive: [6] 101 % of control | [1] 107 % of control | [2] 110 % of control

O=C(Nc1nnc(C(F)(F)F)s1)c1c(F)cccc1F
inactive: [7] 104 % of control | [8] 104 % of control | [6] 99 % of control

c1ccc2sc(NC(Nc3nc4ccccc4s3)C34CC5CC(CC(C5)C3)C4)nc2c1
inactive: [7] 98 % of control | [8] 98 % of control | [6] 91 % of control and 96 % of control

FC(F)(F)C1(C(F)(F)F)[O][Sb]([c]2ccccc2)([c]2ccccc2)([c]2ccccc2)[O]1
inactive: [9] 100 % of control | [10] 101 % of control

N#CS.N=C=S.O=N[O-].[Co+3].[NH2-].[NH2-].[NH2-].[NH2-]
inactive: [8] 102 % of control | [6] 89 % of control | [1] 108 % of control

COc1cccc2c1C(=O)c1c(O)c3c(c(O)c1C2=O)CC(O)(C(=O)COc1ccccc1)CC3O (configuration not stated)
inactive: dose: 1.56 mg/kg/injection, schedule: Q01DX009 (ip), vehicle: other 108 % of control | dose: 3.13 mg/kg/injection, schedule: Q01DX009 (ip), vehicle: other 106 % of control | dose: 6.25 mg/kg/injection, schedule: Q01DX009 (ip), vehicle: other 105 % of control | dose: 12.5 mg/kg/injection, schedule: Q01DX009 (ip), vehicle: other 97 % of control | dose: 25.0 mg/kg/injection, schedule: Q01DX009 (ip), vehicle: other 91 % of control

COc1ccc(C(=O)C(Br)CS(=O)(=O)c2ccc(C)cc2)cc1 (configuration not stated)
inactive: [11] 100 % of control | [12] 102 % of control | dose: 400.0 mg/kg/injection, schedule: Q04DX002 (ip), vehicle: saline 108 % of control

Cc1nc2ccccc2c(C(=O)NO)[n+]1[O-]
inactive: [6] 104 % of control | [1] 100 % of control | [2] 103 % of control

O=c1c2cc(Cl)ccc2nc2n1OCC2
inactive: [9] 94 % of control | [10] 112 % of control | [13] 104 % of control

O=C(O)CCS/N=N/c1nc2nc[nH]c(=O)c2[nH]1
inactive: [14] 107 % of control | [15] 103 % of control | [16] 104 % of control

COC(=O)CC(=O)C(C(=O)OC)C(CCc1ccccc1)C(C(=O)CC(=O)OC)C(=O)OC (configuration not stated)
inactive: dose: 25.0 mg/kg/injection, schedule: Q01DX001 (ip), vehicle: saline with Tween-80 97 % of control | dose: 50.0 mg/kg/injection, schedule: Q01DX001 (ip), vehicle: saline with Tween-80 94 % of control | dose: 100.0 mg/kg/injection, schedule: Q01DX001 (ip), vehicle: saline with Tween-80 94 % of control

O=C1CCC(CBr)(C(=O)O)O1 (configuration not stated)
inactive: [17] 102 % of control | [18] 111 % of control | [19] 100 % of control

O=C1CCCC2OC12 (configuration not stated)
inactive: [11] 110 % of control | [12] 112 % of control

Cc1cc(NC(=O)C(=O)C(C#N)c2cccc(Cl)c2)no1 (configuration not stated)
inactive: [4] 100 % of control | [5] 101 % of control | dose: 200.0 mg/kg/injection, schedule: Q01DX005 (ip), vehicle: saline with Tween-80 108 % of control

O=C1OC(=O)C2C3C=CC(C3)C12 (configuration not stated)
inactive: dose: 12.5 mg/kg/injection, schedule: Q01DX009 (ip), vehicle: saline sonified 100 % of control | dose: 25.0 mg/kg/injection, schedule: Q01DX009 (ip), vehicle: saline sonified 100 % of control | dose: 50.0 mg/kg/injection, schedule: Q01DX009 (ip), vehicle: saline sonified 100 % of control

CCCCOC1OCN(C)CC1(C)C (configuration not stated)
inactive: [8] 98 % of control | [6] 114 % of control

Nc1cc2ncccc2c2ccccc12
inactive: [17] 100 % of control and 98 % of control | [18] 109 % of control | [19] 106 % of control and 89 % of control

O=C(O)C(O)C(O)C(O)C(O)CO.[Mn] (configuration not stated)
inactive: [6] 113 % of control

CC(C)NCC(O)COc1ccccc1C1CC1 (configuration not stated)
inactive: [17] 106 % of control | [18] 104 % of control

CNC(=O)Oc1ccc(C2CCCCC2)cc1
inactive: [6] 107 % of control | [1] 107 % of control | [2] 88 % of control

COc1cccc(N=C(C2=C(O)c3ccccc3C2=O)c2ccccc2)c1
inactive: dose: 100.0 mg/kg/injection, schedule: Q04DX002 (ip), vehicle: saline with Tween-80 101 % of control | dose: 200.0 mg/kg/injection, schedule: Q04DX002 (ip), vehicle: saline with Tween-80 97 % of control | dose: 400.0 mg/kg/injection, schedule: Q04DX002 (ip), vehicle: saline with Tween-80 100 % of control

CCC(=O)OC1CCC2C3CCC4=CC(=O)CCC4(C)C3CCC12C (configuration not stated)
inactive: [1] 95 % of control | dose: 100.0 mg/kg/injection, schedule: Q04DX003 (ip), vehicle: saline with Tween-80 95 % of control | [2] 104 % of control | dose: 200.0 mg/kg/injection, schedule: Q04DX003 (ip), vehicle: saline with Tween-80 100 % of control | [3] 95 % of control | dose: 400.0 mg/kg/injection, schedule: Q04DX003 (ip), vehicle: saline with Tween-80 100 % of control

O=C(NC(Cc1ccc(Cl)cc1)C(=O)O)c1ccc(Br)cc1 (configuration not stated)
inactive: [14] 100 % of control | [15] 96 % of control | [16] 99 % of control

COC(=O)C1c2ccc(OC)c(OC)c2C(=O)N2CCc3cc4c(cc3C12)OCO4 (configuration not stated)
inactive: dose: 50.0 mg/kg/injection, schedule: Q04DX003 (ip), vehicle: distilled water + Tween-80 95 % of control | dose: 100.0 mg/kg/injection, schedule: Q04DX003 (ip), vehicle: distilled water + Tween-80 101 % of control | dose: 200.0 mg/kg/injection, schedule: Q04DX003 (ip), vehicle: distilled water + Tween-80 95 % of control | dose: 400.0 mg/kg/injection, schedule: Q04DX003 (ip), vehicle: distilled water + Tween-80 104 % of control

CCNC(=S)N/N=C\C=N/NC(=S)NCC
inactive: dose: 75.0 mg/kg/injection, schedule: Q01DX009 (ip), vehicle: saline with Tween-80 105 % of control | dose: 150.0 mg/kg/injection, schedule: Q01DX009 (ip), vehicle: saline with Tween-80 92 % of control | dose: 300.0 mg/kg/injection, schedule: Q01DX009 (ip), vehicle: saline with Tween-80 103 % of control

COc1ccccc1CC(C)N (configuration not stated)
inactive: dose: 20.0 mg/kg/injection, schedule: Q04DX003 (ip), vehicle: saline 110 % of control | dose: 40.0 mg/kg/injection, schedule: Q04DX003 (ip), vehicle: saline 105 % of control | dose: 80.0 mg/kg/injection, schedule: Q04DX003 (ip), vehicle: saline 105 % of control

CCCOc1cncc(C)n1
inactive: dose: 12.5 mg/kg/injection, schedule: Q01DX009 (ip), vehicle: saline 95 % of control | dose: 25.0 mg/kg/injection, schedule: Q01DX009 (ip), vehicle: saline 87 % of control | [17] 101 % of control and 97 % of control

COc1cc(-c2cc(C(=O)O)c3cc4ccccc4cc3n2)cc(OC)c1OC
inactive: [9] 113 % of control | [10] 110 % of control | [13] 104 % of control
